Data taken from article PMC6112376, “Comprehensive Analyses and Prioritization of Tox21 10K Chemicals Affecting Mitochondrial Function by in-Depth Mechanistic Studies” (Environmental Health Perspectives, 2018).
Where two headings read alike, the source gives them in different places.

What was measured:
[1] = test system: rat primary hepatocytes
[2] = test system: mitochondrial respiratory chain complex III; format: biochemical, rat
[3] = test system: Caenorhabditis elegans (Bristol N2); experiment: C. elegans larval development and growth assay
[4] = test system: Caenorhabditis elegans strain PE255; conditions: in vivo
[5] = test system: hNSC; experiment: MMP assay in human neural stem cells (hNSC); format: cell-based
[6] = test system: isolated rat liver mitochondria; experiment: Oxygen consumption, Clark-type oxygen electrode; format: biochemical
[7] = test system: HepG2 cells; experiment: Oxygen consumption, Seahorse XF24 analyzer; format: cell-based, human
[8] = test system: HepG2 cells; conditions: cited from earlier work
[9] = test system: HepG2 cells; experiment: ROS-Glo hydrogen peroxide (ROS) assay; format: cell-based, human
[10] = test system: p53 (p53-bla HCT-116 cells); experiment: p53 β-lactamase reporter gene assay; format: cell-based, human
[11] = test system: HepG2 cells; experiment: Intracellular ATP content (cell viability) assay; format: cell-based, human
[12] = test system: mitochondrial respiratory chain complex IV; format: biochemical, rat
[13] = test system: Caenorhabditis elegans (Bristol N2); conditions: in vivo
[14] = biological target: T1, mitochondrial respiratory chain complex II (Rattus norvegicus, UniProt P21913+Q641Z9+Q6PCT8+Q920L2); experiment: Respiratory chain complex II activity; format: biochemical; conditions: tested up to 100μM
T1 construct: Submitochondrial particles were prepared by subjecting the intact rat mitochondria, isolated as described above, to three successive freeze–thaw cycles; from tissue; host or cells: rat liver mitochondria (submitochondrial particles)

[15] = test system: HeLa cells expressing YFP-Parkin; experiment: Parkin translocation assay; format: cell-based, human
[16] = test system: mitochondrial respiratory chain complex I; format: biochemical, rat; conditions: at 20μM
[17] = test system: HepG2 cells
[18] = test system: Nrf2/ARE (ARE-bla HepG2 cells); experiment: ARE β-lactamase reporter gene assay; format: cell-based, human
[19] = test system: rat primary hepatocytes; experiment: MMP assay in rat primary hepatocytes
[20] = test system: mitochondrial respiratory chain complex V; format: biochemical, rat
[21] = test system: Caenorhabditis elegans strain PE255; experiment: In vivo C. elegans ATP status assay

T1 sequence (Q920L2 35-656): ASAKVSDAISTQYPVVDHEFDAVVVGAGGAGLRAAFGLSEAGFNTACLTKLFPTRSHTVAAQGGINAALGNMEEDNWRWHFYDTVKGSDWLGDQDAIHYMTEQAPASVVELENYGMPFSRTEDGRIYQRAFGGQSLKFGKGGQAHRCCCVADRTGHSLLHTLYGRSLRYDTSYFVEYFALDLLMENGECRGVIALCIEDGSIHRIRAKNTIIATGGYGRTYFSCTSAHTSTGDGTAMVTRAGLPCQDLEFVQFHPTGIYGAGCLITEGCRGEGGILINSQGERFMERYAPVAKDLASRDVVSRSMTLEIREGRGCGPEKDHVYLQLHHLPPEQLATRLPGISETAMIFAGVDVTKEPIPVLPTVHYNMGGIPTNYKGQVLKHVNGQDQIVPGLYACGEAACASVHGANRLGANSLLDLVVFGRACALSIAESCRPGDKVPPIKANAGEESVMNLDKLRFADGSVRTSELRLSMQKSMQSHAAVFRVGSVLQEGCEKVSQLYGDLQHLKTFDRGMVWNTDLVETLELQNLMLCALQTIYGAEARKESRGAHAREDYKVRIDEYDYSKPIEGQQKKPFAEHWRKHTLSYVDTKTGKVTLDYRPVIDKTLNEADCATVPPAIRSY
T1 sequence (P21913 31-282): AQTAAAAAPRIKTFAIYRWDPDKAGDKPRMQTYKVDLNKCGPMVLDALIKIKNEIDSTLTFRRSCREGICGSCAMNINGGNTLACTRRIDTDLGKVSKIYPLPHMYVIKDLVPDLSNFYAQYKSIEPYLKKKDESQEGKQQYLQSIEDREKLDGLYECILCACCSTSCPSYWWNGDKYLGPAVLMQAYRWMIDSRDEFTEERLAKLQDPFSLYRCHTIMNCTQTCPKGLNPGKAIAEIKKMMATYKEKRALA
T1 sequence (Q641Z9 1-169): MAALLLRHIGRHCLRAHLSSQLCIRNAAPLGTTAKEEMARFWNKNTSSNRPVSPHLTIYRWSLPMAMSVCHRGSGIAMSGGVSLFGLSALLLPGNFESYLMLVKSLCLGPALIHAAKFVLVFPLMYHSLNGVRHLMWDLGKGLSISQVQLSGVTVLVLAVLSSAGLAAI
T1 sequence (Q6PCT8 57-159): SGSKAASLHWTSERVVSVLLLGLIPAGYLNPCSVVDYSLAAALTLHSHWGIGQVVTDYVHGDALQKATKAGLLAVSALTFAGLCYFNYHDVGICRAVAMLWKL

For `CO/C=C(/C(=O)OC)c1ccccc1COc1cccc(C(F)(F)F)n1` [Picoxystrobin], the “MMP assays efficacy (%) Rat Hepatocytes” value [1] was -101+6%, the “Rat hepatocytes (efficacy) (MMP)” value [1] was 16.1±7.03 ( −77.3±9.18 ) % and the “inhibitory effect on Complex III at (concentration)” value [2] was 4 µM. The “Complex III % inhibition” value ([2]; at 4μM) was 53.3±3.26 at 4μM %, the “EXT: mean difference in nematode size relative to plate controls” value ([3]; 0.5 µM) was 0.05428 and the “EXT: mean difference in nematode size relative to plate controls” value ([3]; 1 µM) was 0.004345. The “EXT: mean difference in nematode size relative to plate controls” value ([3]; 5 µM) was 1.265, the “EXT: mean difference in nematode size relative to plate controls” value ([3]; 10 µM) was 1.24 and the “EXT: mean difference in nematode size relative to plate controls” value ([3]; 25 µM) was 0.112. The “EXT: mean difference in nematode size relative to plate controls” value ([3]; 50 µM) was 0.8304, the “EXT: mean difference in nematode size relative to plate controls” value ([3]; 75 µM) was 0.6508 and the “EXT: mean difference in nematode size relative to plate controls” value ([3]; 100 µM) was 1.291. For the same compound, the “effect on larval growth (in words)” value ([3]; 0.5–100μM) was “inhibited”, the “LEC EXT: lowest effect concentration for extinction, a measure of nematode size” value ([3]; in vivo) was 5 µM and the “LEC (lowest effect concentration), ATP assay” value [4] was under 10 µM. The “hNSC (efficacy) (MMP)” value [5] was 38.2±0.00 ( −92.8±16.3 ) %, the IC50 ([5]; read-out: hNSC IC50 (MMP)) was 38.2 µM and the “Potential Mechanism” value [6] was “Inhibitor”. For the same compound, the “effect on mitochondrial respiration (in words)” value [6] was “effects similar to antimycin A”, the “I-ADP, % of control (O2 consumption rate)” value ([6]; 0.0064 µM) was 94 (43.2) % of control and the “I-sub, % of control (O2 consumption rate)” value ([6]; 0.0064 µM) was 104 (11.7) % of control. The “II-ADP, % of control (O2 consumption rate)” value (“II-ADP, % of control” for short) ([6]; 0.0064 µM) was 81 (61.2) % of control, the “II-sub, % of control (O2 consumption rate)” value (“II-sub, % of control” for short) ([6]; 0.0064 µM) was 101 (20.8) % of control and the “I-ADP, % of control (O2 consumption rate)” value ([6]; 0.032 µM) was 84 (38.8) % of control. The “I-sub, % of control (O2 consumption rate)” value ([6]; 0.032 µM) was 103 (11.5) % of control, the “II-ADP, % of control” value ([6]; 0.032 µM) was 36 (27.2) % of control and the “II-sub, % of control” value ([6]; 0.032 µM) was 74 (15.3) % of control. For the same compound, the “I-ADP, % of control (O2 consumption rate)” value ([6]; 0.16 µM) was 50 (22.8) % of control, the “I-sub, % of control (O2 consumption rate)” value ([6]; 0.16 µM) was 90 (10.1) % of control and the “II-ADP, % of control” value ([6]; 0.16 µM) was 11 (7.9) % of control. The “II-sub, % of control” value ([6]; 0.16 µM) was 41 (8.5) % of control, the “I-ADP, % of control (O2 consumption rate)” value ([6]; 0.8 µM) was 16 (7.2) % of control and the “I-sub, % of control (O2 consumption rate)” value ([6]; 0.8 µM) was 59 (6.6) % of control. The “II-ADP, % of control” value ([6]; 0.8 µM) was 9 (7.1) % of control, the “II-sub, % of control” value ([6]; 0.8 µM) was 33 (6.9) % of control and the “I-ADP, % of control (O2 consumption rate)” value ([6]; 4 µM) was 9 (4.0) % of control. For the same compound, the “I-sub, % of control (O2 consumption rate)” value ([6]; 4 µM) was 39 (4.4) % of control, the “II-ADP, % of control” value ([6]; 4 µM) was 9 (6.6) % of control and the “II-sub, % of control” value ([6]; 4 µM) was 33 (6.9) % of control. The “I-ADP, % of control (O2 consumption rate)” value ([6]; 20 µM) was 9 (4.1) % of control, the “I-sub, % of control (O2 consumption rate)” value ([6]; 20 µM) was 34 (3.8) % of control and the “II-ADP, % of control” value ([6]; 20 µM) was 10 (7.4) % of control. For the same compound, the “II-sub, % of control” value ([6]; 20 µM) was 36 (7.4) % of control, the “I-ADP, % of control (O2 consumption rate)” value ([6]; 100 µM) was 8 (3.7) % of control and the “I-sub, % of control (O2 consumption rate)” value ([6]; 100 µM) was 25 (3.9) % of control. For the same compound, the “II-ADP, % of control” value ([6]; 100 µM) was 7 (4.7) % of control, the “II-sub, % of control” value ([6]; 100 µM) was 16 (4.9) % of control and the “Activity in oxygen consumption” value [7] was “Inhibitor”. The “MMP assays efficacy (%) qHTS-HepG2” value [8] was -116±5%, the IC50 ([8]; read-out: MMP assays IC50 (µM), qHTS-HepG2) was 9.31 ± 2.67 µM and the “ROS (HepG2) (efficacy)” value [9] was 15.4±5.47 ( 36.2±2.46 ) %. For the same compound, the EC50 ([9]; read-out: ROS (HepG2) EC50) was 15.4 µM, the EC50 ([10]; 16 h incubation, mean±SD of three experiments) was 6.68 ± 2.21 µM and the “p53 (HCT-116) (efficacy)” value ([10]; % of positive control) was 40.2±19.6%. For the same compound, the “ATP (HepG2, galactose) (efficacy)” value [11] was 3.08±0.64 ( −76.4±37.7 ) %, the “ATP (HepG2, glucose) (efficacy)” value [11] was 3.61±1.57 ( −76.4±30.3 ) % and the IC50 ([11]; read-out: ATP (HepG2, galactose) IC50) was 3.08 µM. The IC50 ([11]; read-out: ATP (HepG2, glucose) IC50) was 3.61 µM, the “Complex IV % inhibition (activity call)” value [12] was “Inactive” and the “LEC (lowest effect concentration), larval growth assay” value [13] was under 10 µM. The “Complex II % inhibition (activity call)” value [14] was “Inactive”, the Parkin recruitment [15] was “Inactive” and the “Parkin translocation into mitochondria (in words)” value ([15]; 3 h) was “did not induce Parkin translocation”. The “Complex I % inhibition” value [16] was 13.2±3.23 at 20μM %, the “HepG2 (efficacy) Galactose (MMP)” value [17] was 24.4±4.56 ( −119±6.45 ) % and the “HepG2 (efficacy) Glucose (MMP)” value [17] was 13.6±14.5 ( −62.9±25.1 ) %. For the same compound, the “MMP assays efficacy (%) HepG2” value [17] was -122%, the IC50 ([17]; read-out: HepG2 IC50 Galactose (MMP)) was 24.4 µM and the IC50 ([17]; read-out: HepG2 IC50 Glucose (MMP)) was 13.6 µM. The IC50 ([17]; read-out: MMP assays IC50 (µM) HepG2) was 1 µM, the EC50 ([18]; 16 h incubation, mean±SD of three experiments, read-out: ARE (HepG2) EC50) was 0.75 ± 0.49 µM and the “ARE (HepG2) (efficacy)” value ([18]; % of positive control) was 57.6±7.85%. For the same compound, the IC50 ([19]; read-out: MMP assays IC50 (µM) Rat Hepatocytes) was 14.6 ± 4.7 µM, the IC50 ([19]; read-out: Rat hepatocytes IC50 (MMP)) was 16.1 µM and the “Complex V % inhibition (activity call)” value [20] was “Inactive”. For the same compound, the “LUM: mean difference in luminescence (ATP content) relative to plate controls” value ([21]; 0.5 µM) was -0.02313, the “LUM: mean difference in luminescence (ATP content) relative to plate controls” value ([21]; 1 µM) was -0.1059 and the “LUM: mean difference in luminescence (ATP content) relative to plate controls” value ([21]; 5 µM) was 0.5517. For the same compound, the “LUM: mean difference in luminescence (ATP content) relative to plate controls” value ([21]; 10 µM) was 0.8678, the “LUM: mean difference in luminescence (ATP content) relative to plate controls” value ([21]; 25 µM) was 0.0568 and the “LUM: mean difference in luminescence (ATP content) relative to plate controls” value ([21]; 50 µM) was 0.3665. For the same compound, the “LUM: mean difference in luminescence (ATP content) relative to plate controls” value ([21]; 75 µM) was 0.468, the “LUM: mean difference in luminescence (ATP content) relative to plate controls” value ([21]; 100 µM) was 0.877 and the “effect on ATP content (in words)” value ([21]; 0.5–100μM) was “inhibited”. For the same compound, the “LEC LUM: lowest effect concentration for luminescence, a measure of nematode ATP content” value ([21]; in vivo) was 5 µM.
